# Counter-ions that a name gives are not always drawn.
# Tests used:
# [1] = system: phospho(Ser63)-c-jun in HK-2 cells; assay: Cell-Based Assay for JNK Inhibitors (in-cell ELISA, phospho(Ser63)-c-jun after TNFα); details: HK-2 cells (human proximal tubule cells), 60 minutes compound, then 10 ng/mL TNFα for 30 minutes
# Method: Cell-Based Assay for JNK Inhibitors
# The cell-based assay employed the in-cell ELISA method to determine the ability of compounds to prevent the generation of phospho(Ser63)-c-jun in HK-2 cells (human proximal tubule cells) in response to stimulation with tumor necrosis factor α (TNFα). In brief, for quantification of phospho(Ser63)-c-jun, the cells (in 96-well format) were fixed and permeablized then incubated sequentially with a rabbit anti-phospho-c-jun First Antibody specific for the presence of the phospho-Ser63 epitope and a donkey anti-rabbit IgG Second Antibody linked to horseradish peroxidase (HRP) for colorimetric quantitation of binding. […] Blank wells received no TNFα stimulation or compound. Additional Control wells received TNFα stimulation, but no compound.
# Stock cultures of HK-2 cells (ATCC, Manassas, Va.) were grown under a 5% CO2/[…] atmosphere at 37 degrees C. in Keratinocyte-SFM medium (KSFM, Invitrogen, Grand Island, N.Y.) containing 5 μg/L epidermal growth factor and 5 mg/L bovine pituitary extract (both supplied with the medium), additionally supplemented with 10% (v/v) fetal calf serum (FCS; Invitrogen, Grand Island, N.Y.) and 1% (v/v) antibiotic-antimycotic (ABAM: Sigma, St. Louis, Mo.). For assays, cells were seeded in collagen coated 96-well polystyrene plates (BD Biosciences, Franklin Lakes, N.J.) at a density of 40,000 cells/well and cultured for 24 h in the same medium (100 μL/well) followed by a further 16-24 h in 100 μL of similar medium, but without FCS. […] Plates were then allowed to stand at room temperature for 20 minutes before being washed with 200 μL/well of PBS. (Further steps were performed immediately or the plates were stored at 4 degrees C. and the assay completed the next day.) To each well was added 100 μL 1% (v/v) TritonX-100 (Sigma, St. Louis, Mo.) in PBS followed by 20 minutes standing at room temperature, washing with 200 μL/well PBS, the addition of 100 μL/well of Quenching buffer (1% (v/v) hydrogen peroxide (Sigma, St. Louis, Mo.) and 0.1% (w/v) sodium azide (Fisher Scientific, Fair Lawn, N.J.)) in PBS and a further 20 minutes at room temperature. Plates were then washed twice with 200 μL/well of 0.1% (v/v) Tween-20 (Teknova, Hollister, Calif.) in PBS before addition of 200 μL/well of 2% BSA/0.1% Tween-20 in PBS and a further 1 hour at room temperature. […] After a further one hour, rabbit anti-phospho-c-jun-Ser63 is added directly to the solution in the Blank wells resulting in 1:250 dilution of this antibody. Plates were then placed on a slowly rotating platform at 4 degrees C. overnight. Wells were then washed thrice with 200 μL/well PBS/0.1% Tween-20. After addition of the third wash, the plates were placed on a slowly rotating platform for 15 minutes at room temperature. The final PBS/Tween20 wash was then replaced with 100 μL/well of donkey anti-rabbit HRP-labeled Second Antibody (Jackson ImmunoResearch Laboratory, West Grove, Pa.) diluted 1:10,000 in Antibody Dilution Buffer and the plates placed on a slowly rotating platform for 1 hour at room temperature. Wells were then washed four times with 200 μL/well PBS/0.1% Tween-20, including slow rotation for 30 minutes for the third wash and 10 minutes for the final wash. The wells were then washed once with 200 μL PBS without Tween-20. […] Absorbance was determined at a 450 nm wavelength using a spectrophotometer (Molecular Devices SpectraMax 250).
# [2] = biological target: JNK1 (Homo sapiens (Human), UniProt P45983); assay: In Vitro JNK1 Assay (TR-FRET, phosphorylation of GST-c-Jun); type: biochemical; details: 0.2 nM active JNK1 kinase, 26.7 nM GST-c-Jun, 2 μM ATP, 30 min at room temperature
# Sequence of JNK1 (P45983 whole entry): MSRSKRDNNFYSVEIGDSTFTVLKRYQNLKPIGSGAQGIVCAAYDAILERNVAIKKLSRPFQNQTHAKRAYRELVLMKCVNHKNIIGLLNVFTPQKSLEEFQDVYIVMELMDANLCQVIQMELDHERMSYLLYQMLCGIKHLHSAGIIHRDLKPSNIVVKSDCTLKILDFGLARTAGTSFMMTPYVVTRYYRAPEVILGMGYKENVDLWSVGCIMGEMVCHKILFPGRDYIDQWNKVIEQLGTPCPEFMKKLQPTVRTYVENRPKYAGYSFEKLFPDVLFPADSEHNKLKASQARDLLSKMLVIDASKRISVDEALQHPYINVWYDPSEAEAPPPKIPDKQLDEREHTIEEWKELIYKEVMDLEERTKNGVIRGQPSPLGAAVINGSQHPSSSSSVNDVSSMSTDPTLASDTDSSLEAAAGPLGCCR
# In short: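 IC50 derived from percent inhibition across 10 serially diluted concentrations, with TR-FRET detection of phospho-c-Jun via an anti-phospho-c-Jun antibody after EDTA stop. Substrate was GST-c-Jun 1-79, reacted 30 min at room temperature in pH 7.0 HEPES buffer with MgCl2, DTT, vanadate and BSA.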
Structure (SMILES),EC50 [1] [µM],IC50 [2] [nM]
"CN(C)C(=O)c1c(CNC(=O)c2ccc(N3CCOCC3)nc2)c(=O)c2ccc(Cl)cc2n1-c1ccccc1 [Example I-13, 7-Chloro-3-{[(6-morpholin-4-yl-pyridine-3-carbonyl)-amino]-methyl}-4-oxo-1-phenyl-1,4-dihydro-quinoline-2-carboxylic acid dimethylamide]",37,35
"COc1ccc(C(=O)NCc2c(C(=O)N(C)C)n(-c3ccccc3)c3cc(Cl)ccc3c2=O)cc1 [Example I-15, 7-Chloro-3-[(4-methoxy-benzoylamino)-methyl]-4-oxo-1-phenyl-1,4-dihydro-quinoline-2-carboxylic acid dimethylamide]",54,64
"CN(C)C(=O)c1c(CNC(=O)c2ccc3ncsc3c2)c(=O)c2ccc(Cl)cc2n1-c1ccccc1 [Example I-16, 3-{[(Benzothiazole-6-carbonyl)-amino]-methyl}-7-chloro-4-oxo-1-phenyl-1,4-dihydro-quinoline-2-carboxylic acid dimethylamide]",35,66
"CN(C)C(=O)c1c(CNC(=O)c2ccc(S(C)(=O)=O)cc2)c(=O)c2ccc(Cl)cc2n1-c1ccccc1 [Example I-19, 7-Chloro-3-[(4-methanesulfonyl-benzoylamino)-methyl]-4-oxo-1-phenyl-1,4-di-hydro-quinoline-2-carboxylic acid dimethylamide]",30,180
"CN(C)C(=O)c1c(CNC(=O)c2cnn(C)c2)c(=O)c2ccc(Cl)cc2n1-c1ccccc1 [Example I-23, 7-Chloro-3-{[(1-methyl-1H-pyrazole-4-carbonyl)-amino]-methyl}-4-oxo-1-phenyl-1,4-dihydro-quinoline-2-carboxylic acid dimethylamide]",87,780
"Cn1cc(C(=O)NCc2cn(-c3ccccc3)c3cc(Cl)ccc3c2=O)cn1 [Example I-30, 1-Methyl-1H-pyrazole-4-carboxylic acid (7-chloro-4-oxo-1-phenyl-1,4-di hydro-quinolin-3-ylmethyl)-amide]",42,18
"O=C(NCc1cn(-c2ccccc2)c2cc(Cl)ccc2c1=O)c1ccnc(N2CCOCC2)c1 [Example I-31, N-(7-Chloro-4-oxo-1-phenyl-1,4-dihydro-quinolin-3-ylmethyl)-2-morpholin-4-yl-isonicotinamide]",30,31
"O=C(NCc1cn(-c2ccccc2)c2cc(Cl)ccc2c1=O)c1ccc2nc[nH]c2c1 [Example I-33, 3H-Benzoimidazole-5-carboxylic acid (7-chloro-4-oxo-1-phenyl-1,4-dihydro-quinolin-3-ylmethyl)-amide]",100,41
"COc1ccc(C(=O)NCc2cn(-c3ccccc3)c3cc(Cl)ccc3c2=O)cn1 [Example I-35, N-(7-Chloro-4-oxo-1-phenyl-1,4-dihydro-quinolin-3-ylmethyl)-6-methoxy-nicotinamide]",100,54
"NS(=O)(=O)c1ccc(C(=O)NCc2cn(-c3ccccc3)c3cc(Cl)ccc3c2=O)cc1 [Example I-36, N-(7-Chloro-4-oxo-1-phenyl-1,4-dihydro-quinolin-3-ylmethyl)-4-sulfamoyl-benzamide]",100,55

# These reach a lower EC50 [1]. Values come first.
EC50 [1] [µM],IC50 [2] [nM],Structure (SMILES)
29,38,"O=C(NCc1cn(-c2ccccc2)c2cc(Cl)ccc2c1=O)c1ccnc(N2CCCC2)c1 [Example I-32, N-(7-Chloro-4-oxo-1-phenyl-1,4-dihydro-quinolin-3-ylmethyl)-2-pyrrolidin-1-yl-isonicotinamide]"
25,36,"CN(C)C(=O)c1c(CNC(=O)c2cnc(N3CCOCC3)s2)c(=O)c2ccc(Cl)cc2n1-c1ccccc1 [Example I-14, 7-Chloro-3-{[(2-morpholin-4-yl-thiazole-5-carbonyl)-amino]-methyl}-4-oxo-1-phenyl-1,4-dihydro-quinoline-2-carboxylic acid dimethylamide]"
25,330,"CN(C)C(=O)c1c(CNC(=O)c2ccn(Cc3ccccc3)c(=O)c2)c(=O)c2ccc(Cl)cc2n1-c1ccccc1 [Example I-22, 3-{[(1-Benzyl-2-oxo-1,2-dihydro-pyridine-4-carbonyl)-amino]-methyl}-7-chloro-4-oxo-1-phenyl-1,4-dihydro-quinoline-2-carboxylic acid dimethylamide]"
25,72,"O=C(NCc1cn(-c2ccccc2)c2cc(Cl)ccc2c1=O)c1cnn(-c2ccccc2)c1 [Example I-37, 1-Phenyl-1H-pyrazole-4-carboxylic acid (7-chloro-4-oxo-1-phenyl-1,4-dihydro-quinolin-3-ylmethyl)-amide]"
14,98,CN(C)C(=O)c1c(CNC(=O)c2cnc(N3CCC(CO)CC3)s2)c(=O)c2ccc(Cl)cc2n1-c1ccccc1 [Example I-26]
12,44,"O=C(NCc1cn(-c2ccccc2)c2cc(Cl)ccc2c1=O)c1ccn(Cc2ccc(Cl)cc2)c(=O)c1 [Example I-34, 1-(4-Chloro-benzyl)-2-oxo-1,2-dihydro-pyridine-4-carboxylic acid (7-chloro-4-oxo-1-phenyl-1,4-dihydro-quinolin-3-ylmethyl)-amide]"
11,140,"CN(C)C(=O)c1c(CNC(=O)c2ccc(N3CCC(CO)CC3)nc2)c(=O)c2ccc(Cl)cc2n1-c1ccccc1 [Example I-24, 4-Hydroxymethyl-3,4,5,6-tetrahydro-2H-[1,2′]bipyridinyl-5′-carboxylic acid (7-chloro-2-dimethylcarbamoyl-4-oxo-1-phenyl-1,4-dihydro-quinolin-3-ylmethyl)-amide]"
9.7,91,"CN(C)C(=O)c1c(CNC(=O)c2ccc(N3CCCCC3)nc2)c(=O)c2ccc(Cl)cc2n1-c1ccccc1 [Example I-28, 3,4,5,6-Tetrahydro-2H-[1,2′]bipyridinyl-5′-carboxylic acid (7-chloro-2-dimethylcarbamoyl-4-oxo-1-phenyl-1,4-dihydro-quinolin-3-ylmethyl)-amide trifluoroacetate salt]"
9.6,51,"CN(C)C(=O)c1c(CNC(=O)c2ccc(N3CCC(CCO)CC3)nc2)c(=O)c2ccc(Cl)cc2n1-c1ccccc1 [Example I-25, 4-(2-Hydroxy-ethyl)-3,4,5,6-tetrahydro-2H-[1,2′]bipyridinyl-5′-carboxylic acid (7-chloro-2-dimethylcarbamoyl-4-oxo-1-phenyl-1,4-dihydro-quinolin-3-ylmethyl)-amide]"
8,82,"CN(C)C(=O)c1c(CNC(=O)c2cnc(N3CCC(CCO)CC3)s2)c(=O)c2ccc(Cl)cc2n1-c1ccccc1 [Example I-27, 7-Chloro-3-[4({2-[4-(2-hydroxy-ethyl)-piperidin-1-yl]-thiazole-5-carbonyl}-amino)-methyl]-4-oxo-1-phenyl-1,4-dihydro-quinoline-2-carboxylic acid dimethylamide]"
5,13,"O=C(NCc1cn(-c2ccccc2)c2cc(Cl)ccc2c1=O)c1ccn(Cc2ccccc2)c(=O)c1 [Example I-29, 1-Benzyl-2-oxo-1,2-dihydro-pyridine-4-carboxylic acid (7-chloro-4-oxo-1-phenyl-1,4-dihydro-quinolin-3-ylmethyl)-amide]"
